According to patent US11878012B2, “Compositions and methods for treating traumatic brain injury” (Board of Regents, the University of Texas System, priority 2020, dated 2024):

Legend:
[1] = system: DGGCs; experiment: Ca2+ imaging with calcium green-1 in DGGCs of hippocampal slices, whole-cell mode; assay type: cell-based, mice; details: for peak calcium green-1 fluorescence increase: M1R stimulation
Experimental: (§1) Hippocampal Slice Preparation. […] Hippocampal slices were maintained in oxygenated ACSF at 30° C. for 60 min and experiments were performed at 25° C.
Ca2^+ Imaging. Concurrent with patch-clamp electrophysiology, neurons in slices were also imaged (Nikon FN-1, 40× water-immersion objective) via the fluorescent Ca^2+-reporter dye calcium green-1. As a hexapotassium salt, the dye (10 μm) was added to the intracellular patch pipette solution and neurons were patched under whole-cell clamp, as described above. Cells were loaded for 10 min before image acquisition. Fluorescence intensity was obtained using a SOLA Light Engine illumination source (Lumencor) with an output of 3.5 W through a 3-mm-diameter liquid light guide through a Nikon ET-GFP filter. Nikon Elements software was used for image acquisition through a QIClick CCD camera (QImaging). Images were acquired with an exposure time of 200 ms every 2 min using a single-channel, 12-bit rate and no binning. The shutter was closed between each acquisition. For each cell, the corrected total cell fluorescence was measured as the integrated density intensity—(cell area*mean background emission). Ca^2+ signals were measured as the change in fluorescence relative to the baseline fluorescence (ΔF/F0). Averages of four images were thresholded at 10%, masked using a highly averaged image of the cell, and encoded with a pseudocolor look-up table. Group cell fluorescence data were averaged in comparison with normalized intensity at each time point.

[2] = system: DGGCs; experiment: Patch-clamp / current-clamp recordings of DGGCs in hippocampal slices (action potentials, AHP, IM amplitude); assay type: cell-based, mice
Experimental: as §1

[3] = system: DGGCs; experiment: GCaMP6f brain slice Ca2+ imaging of DGGCs after sham or CCI-TBI; assay type: cell-based, mice; details: for Ca2+ influx events per neuron: 0.3 mM ACh 5 min; for duration of Ca2+ influx / peak amplitude of Ca2+ influx: ACh
From the text: Neuromodulation of TRPC generates robust Ca2+ influx and facilitates neuronal hyperexcitability. […] To assess the post-injury effect of TRPC channel upregulation on neurons, we used Ca2+ imaging in brain slice to measure excitability as a product of intracellular Ca2+ gating by TRPC1/4/5 channels (FIG. 4). […] Transgenic mice with the GCaMP6f transgene were used to detect changes in cellular Ca2+-activated fluorescence. We hypothesized that DGGC activity increases due to muscarinic stimulation with ACh or direct activation of TRPC4-containing channels with EA. Sensitivity was tested by bath perfusion of ACh or EA to the slice for 5 minutes during Ca2+ imaging to quantify peak amplitude of GCaMP6f fluorescence per cell, duration of Ca2+ influx, and the field-frequency of events (FIG. 4).
Brain slice Ca2+ imaging. Transverse slices (300 μm) of hippocampus were cut with a vibratome (Thermo Scientific Microm HM650V) from Cre-CamK2+/GCamp6f+/− mice. […] Hippocampal slices were maintained in oxygenated ACSF at 30° C. for 60 min, and experiments performed at 28° C. […] Neurons were visually identified with a Nikon FN-1 microscope equipped with a 40× water-immersion objective and infrared differential interference contrast. GCaMP6f fluorescence was obtained using a SOLA Light Engine Illumination source (Lumecor) with an output of 3.5W through a 3 mm diameter liquid light guide through a Nikon ET-GFP filter. Nikon Elements software was used for image acquisition through a QIClick CCD camera (Qlmaging) with a Uniblitz Model VMM-D 1 shutter driver. Baseline time series of the DG granule layer were acquired in the presence of bath solution perfusion for 2 min. […] Images were acquired in time series with an exposure time of 200 ms at 2-10 fps at 12-bit rate and no binning. Time-series image stacks were processed with ImageJ. Images were background subtracted using the mean of the 5% lowest pixel values. Ca2+ signal events were quantified for each cell as change in fluorescence divided by the baseline fluorescence (ΔF/FO) after background subtraction. ROI signals were detrended before quantification to account for drift due to gradual photobleaching of the background.

[4] = system: TRPC4/5 channels; details: description from literature; cited from earlier work
[5] = system: other TRPC channels; details: description; cited from earlier work
[6] = system: seizure susceptibility; experiment: Single subconvulsant PTZ challenge 7 days after CCI-TBI; assay type: in vivo, mice; details: PTZ 50 mg/kg single dose 7 days after TBI, n=14
From the text: TBI facilitates TRPC-dependent seizure susceptibility.
Controlled cortical impact traumatic brain injury. […] Apnea episodes lasted between 10-60 sec after impact.
Seizure susceptibility assays. Pentylenetetrazol kindling model.

[7] = system: seizure susceptibility; experiment: PTZ kindling after sham or CCI-TBI
Experimental: The fact that only a portion of TBI cases become susceptible to epileptic seizures is a yet unanswered phenomenon in both preclinical and clinical studies. Therefore, we investigated seizure susceptibility within the CCI-TBI model to gain a greater understanding as to the etiology of hyperexcitability spread occurring post-injury. […] In our seizure susceptibility paradigm, 1 or 7 days after experimental procedure, mice were challenged with a subconvulsant dose of PTZ (35 mg/kg s.c.) once-daily to elicit kindling epileptogenesis (FIG. 6A). The progression of motor seizure behavior was observed and timed by direct observation linked to EEG activity (FIG. 6B).
We wished to understand if the TRPC channel upregulation after TBI could be targeted to impede epileptogenic activity. […] Seizure susceptibility was standardized according to the latency to forelimb clonus lasting greater than 5 sec.
Controlled cortical impact traumatic brain injury. The controlled cortical impact (CCI) traumatic brain injury (TBI) model was applied, with a closed skull impact approach. The CCI model causes TBI, but the skull remains intact with minimal hematoma. This type of brain injury model most closely simulates the TBI experienced during blunt-head injuries from vehicular accidents or falls. Mice were anesthetized with isoflurane (3% induction, 1% maintenance) in 100% O2. Body temperature of 37° C. was maintained using a temperature-controlled heated surgical table. The skull was fixed with ear-bars into a stereotaxic frame. A small midline incision was made on the scalp using aseptic surgical techniques. Impact was delivered by cylindrical probe of 5 mm diameter with an Impact One neurotrauma impactor (Leica Biosystems). A calibrated impact was delivered at 4.5 m/sec to a depth of 1 mm and 0.5 sec dwell time to the right parietal cortex (−1.8 mm ML, +2.0 mm AP, −1.0 mm DV). […] The scalp was then sutured closed and mice were placed in a warming recirculation unit and monitored until fully awake and moving freely. […] For consistency, the left hemisphere of both sham and TBI mice is designated as “contralateral” brain, and the right hemisphere is referred to as “ipsilateral”, despite no impact injury occurring in sham mice.
In vivo electroencephalograms. To determine seizure frequency and record brain susceptibility to seizures, mice were implanted with electroencephalogram (EEG) electrodes 24 hr after sham or TBI. A three-channel tethered EEG system was used. The electrode pedestal (P1 Technologies) was secured to the skull with three anchored dental screws and connected to a preamplifier with gain of 25. The three leads were inserted over the left frontal cortex, left parietal cortex, and depth electrode lead into the hippocampus. The Stellate Harmonie acquisition hardware and software were used to collect coincident video and EEG activity. EEGs were inspected for presence of epileptiform spikes and seizures.
Seizure susceptibility assays. Pentylenetetrazol kindling model. Seizure susceptibility was tested with the GABAA receptor antagonist pentylenetetrazol (PTZ) for progression of motor seizure activity. Mice were injected with PTZ (35 mg/kg, s.c.) once per day and scored for motor behavioral seizures.

[8] = system: TRPC1/4/5 channels; details: Rubaiy et al., 2017; cited from earlier work
[9] = TRPC4/5 channels blocked, control or plus 77-LH-28-1 3 μM
[10] = PTZ daily from 1 day post-TBI, TBI
[11] = PTZ daily from 1 day post-procedure, sham
[12] = PTZ daily from 7 days after TBI, TBI
[13] = PTZ daily from 7 days after procedure, sham
[14] = IP3 receptor blockade, xestospongin C 10 μm

Structure (SMILES): CCCCC1CCN(CCCN2C(=O)CCc3ccccc32)CC1 [77-LH-28-1]
- peak calcium green-1 fluorescence increase ([1]; 77-LH-28-1 3 μm): 2.91±0.41 fold
- peak calcium green-1 fluorescence increase ([1]; 77-LH-28-1 10 μm): 4.27±0.95 fold
- enhancement of IM amplitude ([2]; 77-LH-28-1 3 μm with TRPC4/5 channels blocked): 1.83 ±0.14 fold
- action potential firing rate ([2]; 77-LH-28-1 3 μm, no TRPC4/5 blocker): significantly increased
- enhancement of IM amplitude ([2]; M1R stimulation in the absence of TRPC4/5 channel blockers): 1.92±0.10 fold
- action potential threshold ([2]; M084 10 μm + 77-LH-28-1 3 μm, n=8 cells): −46.1±1.5 mV
- AHP amplitude [2, 9]: 13.6 ± 0.9 mV
- AHP area [2, 9]: 264.8 ± 21.5 ms* mV
- AHP decay [2, 9]: 17.1 ± 0.8 ms

Structure (SMILES): CC(=O)OCC[N+](C)(C)C [ACh, acetylcholine]
- Ca2+ influx events per neuron ([3]; contralateral TBI): 2.6±0.2 events/neuron
- Ca2+ influx events per neuron ([3]; ipsilateral TBI): 4.3±0.2 events/neuron
- Ca2+ influx events per neuron ([3]; sham control tissue): 1.8±0.3 events/neuron
- duration of Ca2+ influx ([3]; contralateral DGGCs): 6.12 ± 0.19 s
- peak amplitude of Ca2+ influx ([3]; contralateral DGGCs): 1.70±0.12 ΔF/F
- duration of Ca2+ influx ([3]; ipsilateral DGGCs): 8.51 ± 0.20 s
- peak amplitude of Ca2+ influx ([3]; ipsilateral TBI DGGCs): 4.31±0.58 ΔF/F

Structure (SMILES): Cc1cc(N2CCCCC2)nc2ccccc12 [ML204, 4-Methyl-2-(1-piperidinyl)quinolone]
- maximum calcium-green 1 emission on muscarinic stimulation ([1]; M084 and ML204 together, 10 μm): 1.61±0.21 fold
- effect on TRPC4/5 channels [4]: selectively inhibit
- blockage of other TRPC channels [5]: no appreciable blockage

Structure (SMILES): C1CCc2nnnn2CC1 [PTZ, pentylenetetrazol]
- mice acquiring myoclonic jerks [6]: 100%
- mice with forelimb clonus seizures [6]: 86%
- latency to myoclonic jerks ([7]; PTZ 35 mg/kg s.c. daily from 1 day post-TBI, TBI): 4.4 ± 0.6 days
- latency to myoclonic jerks ([7]; PTZ 35 mg/kg s.c. daily from 1 day post-procedure, sham): 9.5 ± 0.6 days
- latency to forelimb clonus [7, 10]: 5.6 ± 0.7 days
- latency to tonic-clonic seizure [7, 10]: 7.9 ± 0.7 days
- latency to forelimb clonus [7, 11]: 11.3 ± 0.7 days
- latency to tonic-clonic seizure [7, 11]: 12.5 ± 0.8 days
- latency to forelimb clonus [7, 12]: 4.3 ± 0.8 days
- latency to myoclonic jerks [7, 12]: 3.6 ± 0.7 days
- latency to tonic-clonic seizure [7, 12]: 5.6 ± 1.2 days
- latency to forelimb clonus [7, 13]: 12.0 ± 0.6 days
- latency to myoclonic jerks [7, 13]: 9.8 ± 0.4 days
- latency to tonic-clonic seizure [7, 13]: 13.1 ± 0.6 days
- mice with lethal seizures on second tonic-clonic occurrence ([7]; PTZ kindling from 1 day post-TBI, TBI group): five out of eight

Structure (SMILES): Cn1c(=O)n(CCCO)c(=O)c2c1nc(Oc1cccc(OC(F)(F)F)c1)n2Cc1ccc(Cl)cc1 [Pico145]
- potency on TRPC1/4/5 channels [8]: picomolar potency

Structure (SMILES): CCCCCCCCCCCCCCCCCCOCC(COP(=O)([O-])OCC[N+](C)(C)C)OC (stereo not drawn) [edelfosine]
- maximum dye emission over that before agonist ([1]; slices preincubated with edelfosine 10 μm, then 77-LH-28-1): 1.15±0.08 fold

Structure (SMILES): C1CCC[C@H]2CCCN3CC[C@@H](CCCCCC[C@@H]4CCCN5CC[C@@H](CC1)O[C@@H]45)O[C@@H]23 [xestospongin C]
- rises in [Ca2+]i on mAChR stimulation [1, 14]: substantial rises
- action potential firing frequency on mAChR stimulation [2, 14]: increased action potential firing frequency
- M1R-mediated enhancement of IM ([2]; xestospongin C 10 μm in the pipette): 1.67±0.14 fold
